≈ marks a conversion by molar mass, not a printed value.
What was measured:
[1] = system: Huh-7 cells (hepatocellular carcinoma); experiment: Cytotoxic assay (CellTiter 96 AQueous One Solution), Huh-7
Description: (§1) We evaluated the cytotoxic activity of the ethyl acetate and methanol extracts obtained from different parts of the wild plant A. pichinchensis, including its leaves, stems, and callus cultures. The extracts were evaluated using concentrations of 200, 100, 50, 25, and 12.5 µg/mL against various cell lines (Table 1), including human prostate carcinoma (PC-3), cervical cancer (HeLa), hepatocellular carcinoma (Huh-7), human hepatoma (HepG2) and breast tumor cells (MCF-7). These cell lines represent cell types that, unfortunately, have high incidence and mortality rates globally.
(§2) PC-3 (prostate), HeLa (cervical), MCF-7 (breast), and Huh-7 and HepG2 (hepatocellular) human cancer cell lines were purchased from ATCC (Manassas, VA, USA) (Figure 5). We also included an immortalized human epidermal keratinocyte line (HaCat) as a control of non-cancerous cells. […]
(§3) Cells (4 × 10^3 cells/well) were seeded in 96-well plates. […] Cell viability was determined by absorbance at 450 nm using an automated ELISA reader (Promega, Madison, WI, USA). […] Data were analyzed using the Prism 8.0 statistical program (Graphpad Software Inc., La Jolla, CA, USA) and the half-maximal inhibitory concentrations (IC50) were determined by regression analysis.

[2] = system: HepG2 cells (human hepatoma); experiment: Cytotoxic assay (CellTiter 96 AQueous One Solution), HepG2
Description: as §1, §2, §3

[3] = system: PC-3 cells (human prostate carcinoma); experiment: Cytotoxic assay (CellTiter 96 AQueous One Solution), PC-3
Description: as §1, §2, §3

[4] = system: HeLa cells (cervical cancer); experiment: Cytotoxic assay (CellTiter 96 AQueous One Solution), HeLa
Description: as §1
PC-3 (prostate), HeLa (cervical), MCF-7 (breast), and Huh-7 and HepG2 (hepatocellular) human cancer cell lines were purchased from ATCC (Manassas, VA, USA) (Figure 5). We also included an immortalized human epidermal keratinocyte line (HaCat) as a control of non-cancerous cells. PC-3 was grown in RPMI-1640 medium (Sigma Aldrich, St. Louis, MO, USA), while Huh-7, HepG2, HeLa, and HaCat were grown in DMEM medium (Invitrogen, Thermo Fisher Scientific, Waltham, MA, USA) supplemented with 10% SFB and 2 mM glutamine. All cultures were incubated at 37 °C in 5% CO2.
Cells (4 × 10^3 cells/well) were seeded in 96-well plates. The cells were treated with the investigated samples (at 200, 100, 50, 25, and 12.5 µg/mL) and incubated at 37 °C in 5% CO2 for 48 h. Paclitaxel was used as a positive control. For determining the number of viable cells in proliferation we used a CellTiter 96® AQueous One Solution Cell Proliferation Assay kit (Promega, Madison, WI, USA), following the manufacturer’s instructions. Cell viability was determined by absorbance at 450 nm using an automated ELISA reader (Promega, Madison, WI, USA). Stock solutions of all compounds were prepared in DMSO at a maximum concentration of 0.5%. The experiments were conducted in triplicate in three independent experiments. Data were analyzed using the Prism 8.0 statistical program (Graphpad Software Inc., La Jolla, CA, USA) and the half-maximal inhibitory concentrations (IC50) were determined by regression analysis.

[5] = system: MCF-7 cells (breast tumor cells); experiment: Cytotoxic assay (CellTiter 96 AQueous One Solution), MCF-7
Description: as §1, §2, §3

[6] = Cytotoxic assay (CellTiter 96 AQueous One Solution), HaCat selectivity control; conditions: human
Description: as §1, §2, §3

[7] = system: PC-3, HeLa, Huh-7, HepG2, MCF-7 and HaCat cell lines; experiment: Cytotoxic assay, statements over the whole cell line panel; conditions: PTX-treated cell lines
Description: as §1, §2, §3

[8] = system: HaCat cells (immortalized human epidermal keratinocytes); experiment: Cytotoxic assay (CellTiter 96 AQueous One Solution), HaCat selectivity control
Description: as §1, §2, §3

| Compound | IC50 ([1]; Homo sapiens, Huh-7, 48 h, read-out: Cytotoxic activity (IC50), Huh-7) [µg/mL] | IC50 ([2]; Homo sapiens, HepG2, 48 h, read-out: Cytotoxic activity (IC50), HepG2) [µg/mL] | IC50 ([3]; Homo sapiens, PC-3, 48 h, read-out: Cytotoxic activity (IC50), PC-3) [µg/mL] | IC50 ([4]; Homo sapiens, HeLa, 48 h, read-out: Cytotoxic activity (IC50), HeLa) [µg/mL] | IC50 ([5]; Homo sapiens, MCF7, 48 h, read-out: Cytotoxic activity (IC50), MCF-7) [µg/mL] | IC50 at 48 h [6] [µg/mL] | IC50 values range in words [7] | Cytotoxic activity (IC50), Huh-7 [1] [µg/mL] | Cytotoxic activity (IC50), HepG2 [2] [µg/mL] | Cytotoxic activity (IC50), PC-3 [3] [µg/mL] | Cytotoxic activity (IC50), HeLa [4] [µg/mL] | Cytotoxic effect in words, HeLa [4] | Cytotoxic activity (IC50), MCF-7 [5] [µg/mL] | Cytotoxic activity (IC50), HaCat [8] [µg/mL] |
| --- | --- | --- | --- | --- | --- | --- | --- | --- | --- | --- | --- | --- | --- | --- |
| CC(=O)O[C@H]1C(=O)[C@@]2(C)[C@H]([C@H](OC(=O)c3ccccc3)[C@]3(O)C[C@H](OC(=O)[C@H](O)[C@@H](NC(=O)c4ccccc4)c4ccccc4)C(C)=C1C3(C)C)[C@]1(OC(C)=O)CO[C@@H]1C[C@@H]2O [Paclitaxel, paclitaxel] | 0.021 ± 0.00273 (≈ 0.0246 µM) | 0.00857 (≈ 0.01 µM) | 0.013 ± 0.00196 (≈ 0.0152 µM) | 0.017 ± 0.00103 (≈ 0.0199 µM) | 0.018 ± 0.0035 (≈ 0.0211 µM) | 0.097 ± 0.0128 (≈ 0.114 µM) | nanomolar (nM) range | – | – | – | – | – | – | – |
| (2S,3R)-5-acetyl-7,3-dihydroxy-2-(1-isopropenyl)-2,3-dihydrobenzofuran [compound 7] | – | – | – | – | – | – | – | 79.98 ± 3.78 | 74.62 ± 2.02 | 80.36 ± 4.63 | 23.86 ± 2.5 | remarkable effect on the inhibition of HeLa cells | 107.20 ± 1.52 | 123.50 ± 15.17 |

From PMC10609924, “Cytotoxic Activity of Wild Plant and Callus Extracts of Ageratina pichinchensis and 2,3-Dihydrobenzofuran Isolated from a Callus Culture” (Pharmaceuticals, 2023)
